Patent US10889551B2, “Biemamides and related scaffolds as inhibitors of transforming growth factor-beta signaling” (Wisconsin Alumni Research Foundation, priority 2018, dated 2021)

Key:
TGF-β signaling = assay: MLEC luciferase assay (TGF-β activated luciferase, Bright-Glo); assay type: cell-based, mink; details: purified compounds, 24 hours with TGF-β, read-out: IC50, inhibition of TGF-β (MLEC-based TGF-β inhibition assay)
Method: A total of 3840 fractions, plated on 12 384-well plates, were assayed in a high throughput screen at 10 μM final concentration. For purposes of concentration calculations we set the average molecular weight of each compound in the library at 500 Da. Each fraction had its different mass, therefore different volumes were used for each well in the screening. Z′ for the plates were between 0.53 and 0.45. Initial hits were identified as compounds that inhibited the Bright-Glo signal (see below MLEC assay) by more than 84%. Using this criteria, we identified 48 compounds of interest. The 48 initial hits were then re-screened in a 10 point dose response curve in duplicate. The compounds were assayed for both luciferase inhibition and toxicity using CellTiter-Glo (Promega). Of the 48 compounds identified in the HTS assay, 19 inhibited TGF-β activated luciferase activity without inducing mink lung cell toxicity. MLEC were plated into 384-well plates at a density of 5000 cells/well using Micro-flow (Biotek) multi well reagent dispenser and incubated overnight at 37° C. in the CO2 incubator. 1 μM control SB431542 or 10 μM of compounds 1-5 were added to the wells using the ECHO 550 (Labcyte), then added 10 μL media with […] TGF-β using Micro-flow and incubated for 24 hours at 37° C. 25 μL Bright-Glo (Promega) was added using Micro-flow, and agitated for 4 minutes. The Enspire (Perkin Elmer) plate reader was used to measure the TGF-β response in each well. The luciferase activity was reported as relative light units (RLU), and the readout of each tested fraction was then normalized against negative controls. Dose-response TGF-β data and cytotoxicity assays using fibroblasts were employed to more rigorously evaluate the 48 initial hits. […] Chemical analysis of the secondary metabolites in the active wells/extract fractions of WMMA2266 led to the discovery of five pyrimidinedione derivatives, biemamides A-E (1-5).

NMuMG epithelial cells = assay: TGF-β induced EMT in NMuMG cell line (imaging assay); assay type: cell-based, mouse; details: 50 pM TGF-β, 72 h
Method: Mouse mammary epithelial cell line NMuMG was purchased from American Tissue Culture Collection (ATCC, Manassas, Va.), and NMuMG were cultured as per ATCC recommendations. Imaging assay: Cells were plated in glass bottomed 96 well imaging plates, at a density of 1,000 cells per well, and were allowed to attach overnight. Cells (with exception of 3 control wells) were treated with 50 pm TGF-β. Along with the TGF-β test compounds 1-5 were added in at various doses, and a set of wells was treated with a known TGF-β inhibitor SB431542 at 1 μM.
In the absence of TGF-β, NMuMG cells form an epithelial shape; incubation with 50 pM TGF-β for 72 h induces a more fibroblast-like, spindle shaped morphology indicative of mesenchymal cells (FIGS. 3A-3D). […] Nine concentrations (160-0.625 nM) of compounds 1-5 were tested for their ability to impact TGF-β signaling in NMuMG cells.

C. elegans = C. elegans assay (development and body length); assay type: in vivo; details: three concentrations spanning 1 μM→100 μM
Method: Synchronized cultures of C. elegans were obtained using the following procedure: a mixed population of worms containing many gravid adults was washed off of two 10 cm NGM plates using distilled water. C. elegans were pelleted at 1000 g in a 15 mL conical tube and the supernatant was discarded. A mix of 3 mL distilled water, 1 mL bleach, and 1 mL 1 M NaOH was added. The tube was inverted for several minutes until it could be observed that the gravid adults had released their eggs. The eggs were pelleted at 1000 g, washed three times with distilled water and suspended in 10 mL of M9 (3.0 g KH2PO4, 6.0 g Na2HPO4, 0.5 g NaCl, 1.0 g NH4Cl into 1 L distilled water). The egg suspension was rotated overnight in a 50 mL conical tube during which the embryos hatched and arrested at the L1 stage. The C. elegans were washed twice and diluted with M9 to reach an approximate concentration of 20 worms/10 μL. Each well in a 96-well plate was prepared by adding 10 μL worm suspension, 0.5 μg OP50 E. coli, 1 μL DMSO (control) or 1 μL DMSO with compounds, and brought to a final volume of 100 μL with M9 plus cholesterol (5 μg/mL). The plates were incubated in a humidified box at 23° C. for 72 hours. To immobilize worms to measure body length the worms were killed by immersing the 96-well plate in a 70° C. water bath for several minutes. Each experiment was performed in triplicate within each plate. […]

Row | Compound | IC50 (TGF-β signaling) [nM] | inhibition of TGF-β-induced EMT (cell morphology), positive control (NMuMG epithelial cells; 1 μM) | C. elegans size (C. elegans) | inhibition of TGF-β-induced EMT (cell morphology) (NMuMG epithelial cells; nine concentrations 160-0.625 nM (FIG. 3C: 160 nM compound 1))
1 | Biemamide B [Compound 2] | 18.7 |  |  | 
2 | NC(=O)c1ccc(-c2nc(-c3ccc4c(c3)OCO4)c(-c3ccccn3)[nH]2)cc1 [SB431542, reference compound] | 411 | blocked TGF-β-induced transition of the NMuMG epithelial cells into mesenchymal cells | did not alter C. elegans size | 
3 | Biemamide E [Compound 5] | 83.2 |  |  | 
4 | Biemamide D [Compound 4] | 102 |  |  | 
5 | Biemamide C [Compound 3] | 51.5 |  |  | 
6 | Biemamide A [Compound 1] | 51.5 |  |  | cells maintained their epithelial phenotype
